Experimental data reported in PubChem BioAssay (NCI).
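Assay format: 96-well plates, 48-hour exposure. The concentration for 50% growth inhibition is given as GI50. TGI is the concentration that stops growth completely.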

Key:
Experiment in all cases: NCI tumour cell line growth inhibition, 48 h
SNB-75 CNS = system: SNB-75 CNS
HOP-62 NSCLC = system: HOP-62 NSCLC
OVCAR-8 ovarian = system: OVCAR-8 ovarian
NCI-H226 lung = system: NCI-H226 lung
NCI/ADR-RES ovarian = system: NCI/ADR-RES ovarian
UACC-62 melanoma = system: UACC-62 melanoma
OVCAR-5 ovarian = system: OVCAR-5 ovarian
HCT-116 colon = system: HCT-116 colon
LOX IMVI melanoma = system: LOX IMVI melanoma
RPMI-8226 leukemia = system: RPMI-8226 leukemia

| SMILES | GI50 (SNB-75 CNS) [µM] | TGI (SNB-75 CNS) [µM] | GI50 (HOP-62 NSCLC) [µM] | TGI (HOP-62 NSCLC) [µM] | GI50 (OVCAR-8 ovarian) [µM] | TGI (OVCAR-8 ovarian) [µM] | TGI (NCI-H226 lung) [µM] | GI50 (NCI/ADR-RES ovarian) [µM] | TGI (NCI/ADR-RES ovarian) [µM] | GI50 (UACC-62 melanoma) [µM] | TGI (UACC-62 melanoma) [µM] | GI50 (OVCAR-5 ovarian) [µM] | TGI (OVCAR-5 ovarian) [µM] | GI50 (HCT-116 colon) [µM] | TGI (HCT-116 colon) [µM] | GI50 (LOX IMVI melanoma) [µM] | TGI (LOX IMVI melanoma) [µM] | GI50 (RPMI-8226 leukemia) [µM] | TGI (RPMI-8226 leukemia) [µM] | GI50 (NCI-H226 lung) [µM] |
| --- | --- | --- | --- | --- | --- | --- | --- | --- | --- | --- | --- | --- | --- | --- | --- | --- | --- | --- | --- | --- |
| O=c1cc(CNc2cc(F)cc(F)c2)c2ccc(I)cc2[nH]1 | 0.199 | 3.45 | 1.98 | > 100 | 2.83 | > 100 | > 100 | 0.537 | > 100 | 0.508 | > 100 | 16.2 | > 100 | 0.492 | > 100 | 0.679 | > 100 | 0.759 | > 100 |  |
| O=S(=O)(c1ccc(NC(=S)NCc2cccnc2)cc1)N1CCCCC1 | 25.6 | > 100 | > 100 | > 100 | 0.0991 | > 100 | > 100 | 8.36 | > 100 | 23.4 | > 100 | 5.46 | > 100 | 0.47 | > 100 | 6.93 | > 100 | 2.17 | > 100 | 39.5 |
| Fc1ccc2[nH]cc(Cc3c[nH]c4ccc(F)cc34)c2c1 | 29 | 85.6 | 19.6 | 40.9 | 19.4 | 52 | 92.3 | 17.2 | 90 | 12 | 28.3 | 17.5 | 38 | 17.8 | 43.3 | 16 | 47.1 | 21 | 62.2 | 31.3 |
| O=C(CCl)c1ccc([N+](=O)[O-])o1 | 3.06 | 9.16 | 7.58 | 17.6 | 3.33 | 18.8 | 7.05 | 3.51 | 23.8 | 2.13 | 5.62 | 2.48 | 5.3 | 0.519 | 2.4 | 1.47 | 3.19 | 0.873 |  | 2.45 |
| Nc1nc(/C=C\c2ccc([N+](=O)[O-])o2)nc(N2CCN(c3ccccc3)CC2)n1 | 20.9 | 47 | 17.5 | 51.3 | 25.8 | > 100 | 52.8 | 19.2 | 54.8 | 7.36 | 25.8 | 31.5 | 62.5 | 2.61 | 12.2 | 3.49 | 21.2 | 3.62 | > 100 | 17.5 |
| O=C(O)CS(=O)(=O)C(c1ccccc1)c1ccccc1 |  | > 100 |  | > 100 |  | > 100 | > 100 |  | > 100 |  | > 100 |  | > 100 |  | > 100 |  | > 100 |  | > 100 |  |
| O=C(O)[C@@H]1C2CC([C@@H]1C(=O)O)[C@H](N1C(=O)CCC1=O)[C@@H]2Br (stereo partly drawn) |  | > 100 |  | > 100 |  | > 100 | > 100 |  | > 100 |  | > 100 |  | > 100 |  | > 100 |  | > 100 |  | > 100 |  |
| CC1=CC(=O)c2c(O)cccc2C1=O |  | 16.9 |  | 17.6 |  | 3.2 | 24.6 |  | 3.16 |  | 3.4 |  | 3.78 |  | 3.11 |  | 3.32 |  | 1.83 |  |
